Assay results taken from patent US9260382B2, “Methods of reducing virulence in bacteria” (priority 2010, dated 2016).

Experiments:
[1] = test system: Pseudomonas syringae pv. tomato DC3000 (HR elicitation); assay: Hypersensitive response (HR) assay in tobacco leaves; assay type: in vivo; settings: Nicotiana tabacum cv. Xanthi, 18 hours post-infiltration
Description: Bacterial cells from overnight cultures grown in KB broth were resuspended in sterile dH2O. Cell suspensions were mixed with chemicals and allowed to sit for 30 minutes before plant inoculation. Nicotiana tabacum cv. Xanthi plants were used for HR assays. Tobacco leaves were pressure infiltrated by use of a needless syringe (Fu et al. 2006) with 1×10^8 cells/ml and 25 μM, 50 μM, 100 μM, 250 μM, or 500 μM TCA. Plants were photographed and assessed for macroscopic tissue collapse indicative of HR 18 h post-inoculation.
In DC3000, mutations in genes which encode components of the T3SS result in the inability to elicit HR in non-hosts (Collmer et al. 2000). Since TCA represses expression of hrpA (a major component of the T3SS) in vitro, the ability of TCA to suppress HR in planta was examined. DC3000 (OD600=0.1) with 25 μM, 50 μM, 100 μM, 250 μM, or 500 μM of TCA in DMSO was injected into leaves of tobacco (Nicotiana tabacum cv. Xanthi). Concentrations of DMSO which correspond to similar amounts of TCA were also injected into the tobacco plants as negative controls. Tobacco leaves were assessed for HR symptoms 18 hours post-infiltration. No visible signs of tissue damage or HR were observed when DMSO or TCA was separately infiltrated into the tobacco leaves (data not shown). […] This effect is most likely due to lack of a functional T3SS.

[2] = test system: Pseudomonas syringae pv. tomato DC3000; assay: Virulence assay in tomato plants (bacterial speck); assay type: in vivo; settings: five days post-inoculation; for bacterial speck lesions on tomato plants, in words: DC3000 with 250 μM
Description: Virulence assays were performed in 4-5 week old tomato plants. Bacterial cell suspensions were adjusted to 6×10^5 cells/ml in dH2O with 0.02% Silwet L-77 (Lehle Seeds, Round Rock, Tex.). Lycopersicon esculentum cv. Moneymaker plants were dip-inoculated into negative control solution (dH2O with 0.02% Silwet L-77 and DMSO), positive control solution (DC3000 in dH2O with 0.02% Silwet L-77 and DMSO), or with a chemical treatment solution (DC3000 in dH2O with 0.02% Silwet L-77 and 250 μM TCA). Leaves were air-dried and plants were covered with a plastic dome and returned to the growth chamber. Plants were scored for disease symptoms using a modified scoring system (Kozik and Nowakowska 2010) five days post-inoculation. Lesions of bacterial speck on tomato were counted and the plants were scored using the following DSI scale: 0=no lesions per plant, 1=1-10 lesions, 2=11-20 lesions, 3=21-40 lesions, 4=>40 lesions.
The effects of TCA on virulence in tomato plants were examined. Lycopersicon esculentum cv. Moneymaker plants were dip-inoculated with a negative control treatment (dH2O with 0.02% Silwet L-77 and DMSO), a positive control treatment (DC3000 in dH2O with 0.02% Silwet L-77 and DMSO), or with a chemical treatment (DC3000 in dH2O with 0.02% Silwet L-77 and 250 μM TCA) as described in the methods. The lesions of bacterial speck on leaves per plant were counted and plants were classified with a disease severity index (DSI) as described in the methods. […] Plants treated with DC3000 were all scored with a DSI of four (FIG. 36B).

[3] = test system: Pseudomonas syringae pv. tomato DC3000; assay: DC3000 bacterial growth, colony counts; assay type: cell-based; settings: 6 h and 9 h
Description: To determine the maximum concentration of TCA that will inhibit hrpA promoter activity without affecting bacterial growth, DC3000 carrying phrpA was cultured in HIM and HIM supplemented with 25 μM, 50 μM, 100 μM, 250 μM, or 500 μM of TCA. Promoter activity was measured at 6 h and 9 h as mentioned above using flow cytometry. Bacterial growth was determined by withdrawing samples of each culture and spot-plating serial dilutions onto King's B agar (King et al. 1954) in tandem with promoter activity assays. Colonies were counted after 48 h of incubation at 28° C.

hrpS mRNA = assay: qRT-PCR relative mRNA level of hrpS; assay type: cell-based, Dickeya dadantii 3937; settings: 0.1 mM in MM
Description: Bacterial strains were grown in MM. Total RNA from the bacterial cells was isolated by using the TRI reagent method (Sigma, Mo.) and treated with Turbo DNA-free DNase kits (Ambion, Tex.) as described (Peng et al., 2006). An iScript cDNA Synthesis Kit (Bio-Rad, CA) was used to synthesize cDNA from 0.5 μg of treated total RNA. The Real Master Mix (Eppendorf, Westbury, N.Y.) was used for qRT-PCR reaction to quantify the cDNA level of target genes in different samples. The rplU was used as the endogenous control for data analysis. qRT-PCR data were analyzed using Relative Expression Software Tool as described (Pfaffl, M. W., Horgan, G. W., and Dempfle, L. (2002) Relative expression software tool (REST) for group-wise comparison and statistical analysis of relative expression results in real-time PCR. Nucleic Acids Res 30:e36.).

P. aeruginosa = P. aeruginosa bacterial growth with compound; assay type: cell-based, P. aeruginosa PA01
Description: To identify T3SS inhibitors of PA01, a promoter-probe vector pPROBE-AT containing the promoterless green fluorescent protein (gfp) gene was used to construct an exoS promoter-gfp plasmid reporter, pATexoS. PA01 containing pATexoS was cultured in T3SS-inducing medium containing dimethyl sulfoxide (DMSO; solvent of chemical compounds), or supplemented with 250 μM of each compound, and promoter activity was assessed at 6 h by measuring GFP intensity using flow cytometry. 101 compounds (58 synthesized and 43 commercially available) were screened. Compounds 027, 032, 101, and 149 repressed exoS expression at the final concentration of 250 μM by at least one standard deviation below the sample average (Z score≦−1) (FIG. 37 A-E). Z score (or standard score) indicates how many standard deviations an observation or datum is above or below the mean [z=(x−μ)/σ, where x is a raw score to be standardized, μ is the mean of the population, and σ is the standard deviation of the population].
To determine the effective concentration of compounds, the dose-dependent effect of potential inhibitors on exoS expression and bacterial growth were tested. P. aeruginosa cells carrying pATexoS were pre-cultured in LB supplemented with 200 mM NaCl and transferred to fresh LB with 200 mM NaCl, 10 mM NTA, and various concentrations of compounds (20, 50, 100, and 250 μM) or DMSO for 6 h. […] At 50 μM dosage, both 027 and 101 inhibited exoS expression at similar levels, and this inhibitory effect increased as compound concentration increased (FIG. 38A and Table 17). […] These inhibitions/inductions of exoS expression are caused by the shifting bacterial population between low-state expression cells and high-state expression cells (FIG. 40).

In the case of `O=C(O)/C=C/c1ccccc1` [Compound 001, trans-cinnamic acid], the “elicitation of HR by DC3000 in tobacco leaves, in words” value ([1]; infiltrated with 100 μM) is reported as “unable to completely block HR”, the “elicitation of HR by DC3000 in tobacco leaves, in words” value ([1]; infiltrated with 250 μM) is reported as “completely suppressed” and the “disease severity index (DSI)” value ([2]; tomato Lycopersicon esculentum cv. Moneymaker dip-inoculated with DC3000 and 250 μM) is reported as “zero”. For the same compound, the “bacterial speck lesions on tomato plants, in words” value [2] was “No lesions of bacterial speck were observed”, the “bacterial speck lesions on tomato plants, in words” value ([2]; listed as TCA) was “no bacterial speck lesions were observed” and the “colony counts of DC3000 vs control culture, in words” value ([3]; HIM + 500 μM) was “slightly lower”. For the same compound, the “effect on growth of DC3000, in words” value ([3]; HIM, at or below concentrations of 250 μM) was “does not significantly inhibit nor enhance growth”.

For `O=C(O)/C=C/c1ccccc1O` [Compound 006, Ortho-coumaric acid], the “hrpS mRNA compared with MM alone, in words” value (hrpS mRNA) was “No significant difference”.

For `O=C(/C=C/c1ccc(O)cc1)NO` [Compound 103, trans-4-Hydroxycinnamohydroxamic acid], the “effect on bacterial growth, in words” value (P. aeruginosa; P. aeruginosa, 250 μM) was “some inhibition on bacterial growth” and the “dose-dependent effect on P. aeruginosa growth, in words” value (P. aeruginosa; various concentrations (up to 250 μM for 101, up to 500 μM for 027), FIG. 39) was “inverse relationship was observed between the compound concentration and bacterial growth”.
